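Exposure lasted 48 hours, with cells grown in 96-well plates and compounds tested at five concentrations. Abbreviation: GI50, concentration required for 50% inhibition of growth. TGI: concentration producing complete growth inhibition.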
What was measured:
Test in all cases: growth of human tumour cells (NCI), 48 h
CAKI-1 renal = tested on: CAKI-1 renal
RXF 393 renal = tested on: RXF 393 renal
NCI-H226 lung = tested on: NCI-H226 lung
HT29 colon = tested on: HT29 colon
MDA-MB-231 breast = tested on: MDA-MB-231 breast
MOLT-4 leukemia = tested on: MOLT-4 leukemia
TK-10 renal = tested on: TK-10 renal
IGROV1 ovarian = tested on: IGROV1 ovarian
COLO 205 colon = tested on: COLO 205 colon
SK-OV-3 ovarian = tested on: SK-OV-3 ovarian
DU-145 prostate = tested on: DU-145 prostate
NCI/ADR-RES ovarian = tested on: NCI/ADR-RES ovarian
UACC-62 melanoma = tested on: UACC-62 melanoma
HL-60(TB) leukemia = tested on: HL-60(TB) leukemia
HS 578T breast = tested on: HS 578T breast
OVCAR-8 ovarian = tested on: OVCAR-8 ovarian
SF-268 CNS = tested on: SF-268 CNS
MCF7 breast = tested on: MCF7 breast
UO-31 renal = tested on: UO-31 renal
KM12 colon = tested on: KM12 colon
OVCAR-4 ovarian = tested on: OVCAR-4 ovarian
ACHN renal = tested on: ACHN renal
NCI-H460 lung = tested on: NCI-H460 lung
SK-MEL-5 melanoma = tested on: SK-MEL-5 melanoma
SF-539 CNS = tested on: SF-539 CNS
SW-620 colon = tested on: SW-620 colon
SK-MEL-2 melanoma = tested on: SK-MEL-2 melanoma
HCT-116 colon = tested on: HCT-116 colon
NCI-H522 lung = tested on: NCI-H522 lung

Work on `CS(=O)c1nccc(-c2c(-c3ccc(F)c(OCCc4ccc(F)cc4)c3)nc3sccn23)n1` (configuration not stated) yielded a TGI (CAKI-1 renal) of 23 µM, a GI50 (RXF 393 renal) of 13.3 µM and a TGI (RXF 393 renal) of 26.3 µM. It also gave a GI50 (NCI-H226 lung) of 15.5 µM, a TGI (NCI-H226 lung) of 32.4 µM and a GI50 (HT29 colon) of 14.9 µM. For the same compound, the TGI (HT29 colon) was 30.1 µM, the GI50 (MDA-MB-231 breast) was 14.6 µM and the TGI (MDA-MB-231 breast) was 31.9 µM. It also gave a GI50 (MOLT-4 leukemia) of 4.04 µM, a TGI (MOLT-4 leukemia) of 15.8 µM and a GI50 (TK-10 renal) of 30.9 µM. The TGI (TK-10 renal) was over 100 µM, the GI50 (IGROV1 ovarian) was 2.48 µM and the TGI (IGROV1 ovarian) was 6.65 µM. It also gave a GI50 (COLO 205 colon) of 28.4 µM, a TGI (COLO 205 colon) of over 100 µM and a GI50 (SK-OV-3 ovarian) of over 100 µM. For the same compound, the TGI (SK-OV-3 ovarian) was over 100 µM, the GI50 (DU-145 prostate) was 4.13 µM and the TGI (DU-145 prostate) was 14.5 µM. For the same compound, the GI50 (NCI/ADR-RES ovarian) was 20.3 µM, the TGI (NCI/ADR-RES ovarian) was 49 µM and the GI50 (UACC-62 melanoma) was 16.1 µM. It also gave a TGI (UACC-62 melanoma) of 33.2 µM, a GI50 (HL-60(TB) leukemia) of 2.5 µM and a TGI (HL-60(TB) leukemia) of 6.05 µM. It also gave a GI50 (HS 578T breast) of 19.9 µM, a TGI (HS 578T breast) of 79.6 µM and a GI50 (OVCAR-8 ovarian) of 14.3 µM. It also gave a TGI (OVCAR-8 ovarian) of 28 µM, a GI50 (SF-268 CNS) of 16.1 µM and a TGI (SF-268 CNS) of 32.1 µM. For the same compound, the GI50 (MCF7 breast) was 2.02 µM, the TGI (MCF7 breast) was 4.81 µM and the GI50 (UO-31 renal) was 1.82 µM. The TGI (UO-31 renal) was 4.11 µM, the GI50 (KM12 colon) was 14.5 µM and the TGI (KM12 colon) was 29.2 µM. It also gave a GI50 (OVCAR-4 ovarian) of 14.7 µM, a TGI (OVCAR-4 ovarian) of 28.6 µM and a GI50 (ACHN renal) of 2.07 µM. The TGI (ACHN renal) was 4.37 µM, the GI50 (NCI-H460 lung) was 4.89 µM and the TGI (NCI-H460 lung) was 17.4 µM. It also gave a GI50 (SK-MEL-5 melanoma) of 23.4 µM, a TGI (SK-MEL-5 melanoma) of 58.7 µM and a GI50 (SF-539 CNS) of 18 µM. The TGI (SF-539 CNS) was 41 µM, the GI50 (SW-620 colon) was 3.5 µM and the TGI (SW-620 colon) was 14.1 µM. It also gave a GI50 (SK-MEL-2 melanoma) of 15.6 µM, a TGI (SK-MEL-2 melanoma) of 29.7 µM and a GI50 (HCT-116 colon) of 3.52 µM. For the same compound, the TGI (HCT-116 colon) was 12.4 µM, the GI50 (NCI-H522 lung) was 13.5 µM and the TGI (NCI-H522 lung) was 29.7 µM.
